Experimental data taken from patent US11246844B2, “Methods for inhibiting conversion of choline to trimethylamine (TMA)” (The Procter & Gamble Company, priority 2016, dated 2022).
pIC50: −log10 of the molar value. Structures can show the parent of a compound that is named as a salt.

System: Proteus mirabilis 29906 (Pm) lysate
Test: Inhibition of conversion of choline to TMA in Proteus mirabilis lysate (Example 2)
Type: biochemical
Conditions: Pm lysate 1.5 mg/mL protein, 50 μM d9-choline chloride, 37° C., two hours, d9-TMA by LC-MS/MS; read-out: TMA Inhibition (IC50, mol/L)

Row | Structure (SMILES) | pIC50
1 | C#CC[N+](C)(C)C [compound 33] | 9.94
2 | C#CC[N+](CC#C)(CC#C)CC#C [compound 39, tetrakis(prop-2-ynyl)ammonium] | 4.06
3 | C#CC[N+]1(C)C2CCCC1CC2 (centres unmarked) [compound 18, 8-methyl-8-(prop-2-yn-1-yl)-8-azabicyclo[3.2.1]octan-8-ium] | 5.79
4 | C=C(C#N)C[N+]1(C)C2CCCC1CC2 (centres unmarked) [compound 14, 8-(2-cyanoallyl)-8-methyl-8-azabicyclo[3.2.1]octan-8-ium] | 4.35
5 | C#CC[N+]1(C)CCC(O)CC1 (centres unmarked) [compound 17, 4-hydroxy-1-methyl-1-(prop-2-yn-1-yl)piperidin-1-ium] | 3.91
6 | C#CC[N+](CC#C)(CC#C)CCO [compound 26, N-(2-hydroxyethyl)-N,N-di(prop-2-yn-1-yl)prop-2-yn-1-aminium] | 4.50
7 | C#CC[N+](C)(C)CC(OCC)OCC [compound 6, N-(2,2-diethoxyethyl)-N,N-dimethylprop-2-yn-1-aminium] | 4.05
8 | C=CC[N+](CC=C)(CC=C)CC=C [compound 30, N,N,N-tri(prop-2-en-1-yl)prop-2-en-1-aminium] | 3.16
9 | C#CC[N+](C)(C)CCl [compound 40, chloromethyl-dimethyl-prop-2-ynyl-ammonium] | 10.78
10 | C#CC[N+](C)(CC#C)CC#C [compound 38, methyl-tris(prop-2-ynyl)ammonium] | 4.09
11 | C=CC[N+](C)(C)C [compound 37] | 4.30
12 | C#CC[N+](C)(C)CCN [compound 15, 2-aminoethyl-dimethyl-prop-2-ynyl-ammonium, hydrochloride] | 5.52
13 | C=CC[N+](C)(C)CC=C [compound 23, N,N-dimethyl-N-2-propenyl-2-propen-1-aminium] | 5.52
14 | C#CC[N+](C)(C)CC(OC)OC [compound 4, N-(2,2-dimethoxyethyl)-N,N-dimethylprop-2-yn-1-aminium] | 6.28
15 | C#CC[N+](C)(C)CCBr [compound 43, 2-bromoethyl-dimethyl-prop-2-ynyl-ammonium] | 6.85

Other lines, results leading:

Row | pIC50 | Structure (SMILES)
16 | 8.58 | C#CC[N+](C)(C)CC#C [compound 34, dimethyl-bis(prop-2-ynyl)ammonium]
17 | 7.52 | C#CC[N+](C)(C)CCO [compound 21, N-(2-hydroxyethyl)-N,N-dimethyl-2-propyn-1-aminium]
18 | 7.67 | C#CC[N+](C)(C)CC(=O)O [compound 19, N-(carboxymethyl)-N,N-dimethylprop-2-yn-1-aminium]
19 | 6.82 | CC#CC[N+](C)(C)CCO [compound 22, N-(2-hydroxyethyl)-N,N-dimethyl-2-butyn-1-aminium]
20 | 5.17 | C=CC[N+](C)(C)CCO [compound 25]
21 | 3.47 | C[N+](C)(CC#N)CCO [compound 29, N-(cyanomethyl)-2-hydroxy-N,N-dimethylethan-1-aminium]
22 | 3.93 | C#CC[N+](C)(C)CCCO [compound 28, N-(3-hydroxypropyl)-N,N-dimethylprop-2-yn-1-aminium]
23 | 6.05 | C/C=C/C[N+](C)(C)CCO [compound 32, [(E)-but-2-enyl]-(2-hydroxyethyl)-dimethyl-ammonium]
24 | 6.66 | C#CC[N+](C)(C)CCCCCC(=O)O [compound 7, 5-carboxy-N,N-dimethyl-N-(prop-2-yn-1-yl)pentan-1-aminium]
25 | 7.88 | C#CC[N+](C)(C)CC(=C)C(=O)OC [compound 1, 2-(methoxycarbonyl)-N,N-dimethyl-N-(prop-2-yn-1-yl)prop-2-en-1-aminium]
26 | 4.81 | C=C(C[N+](C)(C)CCO)C(=O)O [compound 10, 2-carboxy-N-(2-hydroxyethyl)-N,N-dimethylprop-2-en-1-aminium]
27 | 7.20 | C=C(C#N)C[N+](C)(C)CCO [compound 11, 2-cyano-N-(2-hydroxyethyl)-N,N-dimethylprop-2-en-1-aminium]
28 | 7.19 | C=CC[N+](C)(C)CC#N [compound 35, allyl-(cyanomethyl)-dimethyl-ammonium]
29 | 7.12 | C#CC[N+](C)(C)CC(=C)C(=O)O [compound 8, 2-carboxy-N,N-dimethyl-N-(prop-2-yn-1-yl)prop-2-en-1-aminium bromide]
30 | 4.80 | C#CCC[N+](C)(C)CCO [compound 16, N-(2-hydroxyethyl)-N,N-dimethylbut-3-yn-1-aminium]
31 | 9.63 | C#CC[N+](C)(C)CBr [compound 41, bromomethyl-dimethyl-prop-2-ynyl-ammonium]
32 | 8.32 | C#CC[N+](C)(C)CC(=C)C#N [compound 12, 2-cyano-N,N-dimethyl-N-(prop-2-yn-1-yl)prop-2-en-1-aminium]
33 | 6.56 | C#CC[N+](C)(C)CC#N [compound 36, cyanomethyl-dimethyl-prop-2-ynyl-ammonium]
34 | 6.96 | C#CC[N+](C)(C)CCCCC(=O)O [compound 2, 4-carboxy-N,N-dimethyl-N-(prop-2-yn-1-yl)butan-1-aminium]
35 | 7.36 | C#CC[N+](C)(C)CC(=O)OC [compound 20, N-(2-methoxy-2-oxoethyl)-N,N-dimethylprop-2-yn-1-aminium]
36 | 5.62 | COC(C[N+](C)(C)CCO)OC [compound 3, N-(2-hydroxyethyl)-2,2-dimethoxy-N,N-dimethylethan-1-aminium]
37 | 5.74 | C#CC[N+](C)(C)CC(=O)O [compound 31]
38 | 9.33 | C#CC[N+](C)(C)CI [compound 42, iodomethyl-dimethyl-prop-2-ynyl-ammonium]
39 | 6.88 | C#CC[N+](C)(C)CC(N)=O [compound 9, N-(2-amino-2-oxoethyl)-N,N-dimethylprop-2-yn-1-aminium]
40 | 5.71 | C[N+](C)(CCO)CC1CO1 (centres unmarked) [compound 24, 2-hydroxy-N,N-dimethyl-N-(oxiran-2-ylmethyl)ethan-1-aminium]
41 | 5.27 | C#CC[N+](C)(C)CC(O)O [compound 5, N-(2,2-dihydroxyethyl)-N,N-dimethylprop-2-yn-1-aminium]
42 | 7.20 | C#CC[N+](C)(C)CC(=O)C(=O)OC [compound 13, N-(3-methoxy-2,3-dioxopropyl)-N,N-dimethylprop-2-yn-1-aminium]

Same assay, conditions: read-out: TMA Inhibition (IC50, mol/L)

Row | Structure (SMILES) | pIC50
43 | C=CC(=O)OCC[N+](C)(C)C [compound 27, 2-(acryloyloxy)-N,N,N-trimethylethan-1-aminium] | 4.16

System: Pseudomonas aeruginosa
Test: not given
Conditions: growth on glycine betaine and dimethyl glycine; cited from earlier work

Row | Structure (SMILES) | Growth of P. aeruginosa on GB and DMG
44 | C#CC[N+](C)(C)CCO [ID 21, N-(2-hydroxyethyl)-N,N-dimethyl-2-propyn-1-aminium bromide] | inhibited

System: plasma TMAO
Test: Preclinical screening method: plasma TMAO in mice on 1% Choline Added diet (Example 3)
Type: in vivo, mice (C57bl/6)
Conditions: Mus musculus, 24 h; mice, oral gavage once daily, 310 mg/kg/day, day 1, blood 20 hours post gavage; read-out: Remaining plasma TMAO as percentage of plasma TMAO in same day vehicle control (% of control remaining)
Experimental: Starting at day 0, mice (C57bl/6, ˜19 g, 10 wk of age; n=5/group) were maintained in accordance with the NIH guidelines in a 12:12 hr light:dark cycle and provided with 1% Choline Added diet (Envigo custom formulation prepared, similar to Teklad Global Rodent Diet 2018) ad libitum. Concurrent with introduction of the diet mice were gavaged once daily orally using a 1.5″ 22G ball-tip curved feeding needle to administer compound in 200 μl or less of water at one or multiple of the dose 0, 1.0, 3.1, 10, 31, 100 or 310 mg/kg/day. Urine was collected once daily in the morning. Animals were restrained by hand and bladder was expressed by gentle palpation of the pelvic region. Aliquots of 1-5 μl of urine were centrifuged at 1,300×g for 5 min in a 1.5 mL conical bottom tube with a snap top, to precipitate any potential cellular debris, and supernatants were transferred to a clean screw-cap tube with o-ring seal and stored at −80° C. until analysis. Sixty microliters or less of blood was collected at 20 hours post gavage, into a heparinized capillary tube. Blood was kept at 4° C., then spun using a centrifuge (5 min in centrifuge designed to capillary tubes) to separate plasma and hematocrit within 4 hours after collection. Plasma samples were stored at −80° C.
For measurement of TMA in plasma, samples were acidified (10 mM HCl final) prior to storage at −80° C. TMAO and trimethylamine (TMA) and their d9-isotopologues were quantified using stable isotope dilution HPLC with on-line electrospray ionization tandem mass spectrometry ([…]) methods as described in (Wang Z, Klipfell E, Bennett B J, et al. (2011) Gut flora metabolism of phosphatidylcholine promotes cardiovascular disease. Nature 472:57-63) using d4(1,1,2,2)-choline, d3(methyl)-TMAO, and d3(methyl)-TMA as internal standards. Concentrations of TMAO in urine were adjusted for urinary dilution by analysis of urine creatinine concentration. Samples were taken at different days during the studies and different doses were administered to avoid side effects at higher doses of some of the compounds.

Row | Structure (SMILES) | response vs control in vivo at 310 mg/kg/day
45 | C#CC[N+](C)(C)CCCCC(=O)O [4-carboxy-N,N-dimethyl-N-(prop-2-yn-1-yl)butan-1-aminium bromide] | 64.4%
46 | C#CC[N+](C)(C)CC(=C)C(=O)OC [2-(methoxycarbonyl)-N,N-dimethyl-N-(prop-2-yn-1-yl)prop-2-en-1-aminium bromide] | 69%
47 | C#CC[N+](C)(C)CC(=C)C#N [2-cyano-N,N-dimethyl-N-(prop-2-yn-1-yl)prop-2-en-1-aminium bromide] | 46.2%

Same assay, conditions: Mus musculus, 72 h; mice, oral gavage once daily, 100 mg/kg/day, day 3, blood 20 hours post gavage; read-out: Remaining plasma TMAO as percentage of plasma TMAO in same day vehicle control (% of control remaining)

Row | Structure (SMILES) | response vs control in vivo at 100 mg/kg/day
48 | C#CC[N+](C)(C)CC(=O)O | 6.06%

Same assay, conditions: Mus musculus, 72 h; mice, oral gavage once daily, 310 mg/kg/day, day 3, blood 20 hours post gavage; read-out: Remaining plasma TMAO as percentage of plasma TMAO in same day vehicle control (% of control remaining)

Row | Structure (SMILES) | response vs control in vivo at 310 mg/kg/day
49 | C#CC[N+](C)(C)CBr [ID 41, bromomethyl-dimethyl-prop-2-ynyl-ammonium bromide] | 0.23%
50 | C#CC[N+](C)(C)CI [ID 42, iodomethyl-dimethyl-prop-2-ynyl-ammonium iodide] | 0.1%
51 | C#CC[N+](C)(C)CCO [ID 21, N-(2-hydroxyethyl)-N,N-dimethyl-2-propyn-1-aminium bromide] | 0.94%

Same assay, conditions: Mus musculus, po, 24 h, read-out: Remaining plasma TMAO as percentage of plasma TMAO in same day vehicle control (% of control remaining)

Row | Structure (SMILES) | response vs control in vivo at 310 mg/kg/day
52 | C#CC[N+](C)(C)CCl [ID 40, chloromethyl-dimethyl-prop-2-ynyl-ammonium iodide] | 0.43%

Same assay, conditions: Mus musculus, po, 72 h, read-out: Remaining plasma TMAO as percentage of plasma TMAO in same day vehicle control (% of control remaining)

Row | Structure (SMILES) | response vs control in vivo at 310 mg/kg/day
53 | C#CC[N+](C)(C)C [ID 33, trimethyl(prop-2-ynyl)ammonium iodide] | 0.41%
